Columns and labels:
mitochondrial fission = details: as disclosed in Cassidy-Stone et al. Developmental Cell 2008; cited from earlier work
[1] = system: bone marrow derived dendritic cells (BM-DCs); assay: ECAR after LPS stimulation with or without Mdivi-1, dendritic cells; format: cell-based, mice; details: BM-DCs following stimulation with LPS, 10 μM Mdivi-1
Description: (§1) FIG. 6A, FIG. 6B, FIG. 6C, FIG. 6D, FIG. 6E, FIG. 6F, FIG. 6G, FIG. 6H, FIG. 6I, FIG. 6J, FIG. 6K, FIG. 6L, FIG. 6M, and FIG. 6N depict graphs and images showing that mitochondrial cristae remodeling signals metabolic pathway engagement. (FIG. 6A) Basal ECAR of OT-I Opa1^+/+ and Opa1^−/− IL-2 TE cells (left) and day 7 TE cells isolated ex vivo after adoptive transfer from LmOVA infection (right). Data combined from 2-3 experiments (*p=0.0412, ***p<0.0001). (FIG. 6B) OCR at baseline and after indicated drugs, representative of 2 experiments shown as mean±SEM, and (FIG. 6C) D-Glucose-^13C1,2 trace analysis of OT-I Opa1^+/+ and Opa1^−/− IL-2 TE cells. Each lane represents separate mice with a technical replicate. […] (FIG. 6K) IL-15 TM cell, (FIG. 6L, FIG. 6M) bone marrow-derived dendritic cell (BM-DCs) and macrophage (BM-Macs) % ECAR measured at baseline and after media, αCD3/CD28-conjugated bead, LPS, or LPS+IFN-γ injection as indicated. […]
(§2) To more directly test this idea, we assessed ECAR of IL-15 TM cells that were stimulated with αCD3/28-conjugated beads in the presence or absence of Mdivi-1. […] We stimulated bone marrow derived dendritic cells (BM-DCs) and macrophages (BM-Macs) with lipolysaccharide (LPS) with or without interferon (IFN)-γ in the presence or absence of Mdivi-1 and measured ECAR. […]

[2] = system: Bone marrow derived macrophages (BM-Macs); assay: ECAR after LPS with or without IFN-γ stimulation with or without Mdivi-1, macrophages; format: cell-based, mice; details: BM-Macs following stimulation with LPS with or without IFN-γ, 10 μM Mdivi-1
Description: as §1, §2

BM-Macs = assay: intracellular Nos2 protein by flow cytometry; format: cell-based, mice; details: stimulated BM-Macs, Mdivi-1 treated
IL-15 TM cells [3] = assay: EM analysis of mitochondrial cristae after stimulation with or without Mdivi-1; format: cell-based, mice; details: IL-15 TM cells activated with αCD3/CD28-conjugated beads or PMA and ionomycin, presence or absence of Mdivi-1
Description: as §1, with “replicate. (FIG. 6D) EM analysis of mitochondrial cristae from TE and TM cells isolated after LmOVA infection and (FIG. 6E) in vitro cultured IL-2 TE and TM cells. Data representative of 2 experiments, scale bar=0.25 μm.” for “replicate.”
To more thoroughly examine this idea, we assessed cristae morphology in TE and TM cells by EM following TCR stimulation. […]

IL-15 TM cells [4] = assay: ECAR after αCD3/28 bead stimulation with or without Mdivi-1; format: cell-based, mice; details: αCD3/28-conjugated beads, 10 μM Mdivi-1 vs control
Description: as §1, §2

COc1cc(-n2c(=S)[nH]c3ccccc3c2=O)c(Cl)cc1Cl [Mdivi-1]
efficacy relative to Mdivi-1 as mitochondrial fission inhibitor (mitochondrial fission): full efficacy | aerobic glycolysis (ECAR) [1]: curtailed | aerobic glycolysis (ECAR) [2]: curtailed | nitric oxide synthase 2 (Nos2) protein expression (BM-Macs): significantly decreased | cristae morphology by EM (IL-15 TM cells [3]): intermembrane space widening over time in control cells in comparison to drug treated cells | aerobic glycolysis (ECAR) (IL-15 TM cells [4]): did not robustly increase aerobic glycolysis

Source: US20180064712A1, “METHODS OF REDUCING IMMUNE CELL ACTIVATION AND USES THEREOF” (Washington University, priority 2016, published 2018)
